{"source": "paper PMC4187121", "about": "“Flexible Enantioselectivity of Tryptophanase Attributable to Benzene Ring in Heterocyclic Moiety of D-Tryptophan” (Life : Open Access Journal, 2012)", "key": {"tryptophanase [1]": {"molecular_target": "T1, tryptophanase (Escherichia coli, UniProt P0A853)", "T1 construct": "purchased Sigma-Aldrich Co. (St. Louis, MO, USA)", "T1 sequence (P0A853 whole entry)": "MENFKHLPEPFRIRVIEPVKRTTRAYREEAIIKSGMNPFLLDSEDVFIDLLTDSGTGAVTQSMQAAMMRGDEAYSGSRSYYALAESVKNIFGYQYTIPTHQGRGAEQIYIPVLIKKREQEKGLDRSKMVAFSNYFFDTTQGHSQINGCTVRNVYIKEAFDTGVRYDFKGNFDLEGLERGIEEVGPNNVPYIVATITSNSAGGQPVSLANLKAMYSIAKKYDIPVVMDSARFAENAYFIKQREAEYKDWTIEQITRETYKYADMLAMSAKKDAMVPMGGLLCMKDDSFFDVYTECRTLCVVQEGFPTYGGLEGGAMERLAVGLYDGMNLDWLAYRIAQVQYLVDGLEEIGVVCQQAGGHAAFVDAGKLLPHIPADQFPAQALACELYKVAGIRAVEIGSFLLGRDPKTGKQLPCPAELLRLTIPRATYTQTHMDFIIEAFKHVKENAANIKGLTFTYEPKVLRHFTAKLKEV", "assay": "D-tryptophan degradation by tryptophanase in the presence of 3.1 M DAP, kinetic and inhibition analysis", "assay_type": "biochemical, E. coli", "conditions": "for effect on D-tryptophan degradation: in the presence of 3.1 M DAP", "method": "(§1) When tryptophanase degraded L-tryptophan, all reaction mixtures included 0.2 mM of pyridoxal 5′-phosphate and 0.23 μM of tryptophanase in 100 mM potassium phosphate buffer of pH 8.3. DAP concentrations were prepared to the required concentrations of 0, 0.6, 1.2, 1.9 or 3.1 M. L-tryptophan. The reaction mixture was prepared to a concentration of 98, 108, 128, 137, 147, 167, 196, 225, 245, 294, 343, 392, 490, 680 or 980μM for kinetic analyses. Reactions were performed at 37 °C for 30 min in a Dry Thermo Unit DTU-1B (Taitec, Tokyo, Japan). Although D-tryptophan in addition to L-tryptophan was also degraded into indole in the presence of DAP, an indole production amount from D-tryptophan was neglected at this reaction temperature and time because the catalytic efficiency for D-tryptophan was 0.3% of that for L-tryptophan. On the other hand, the reaction condition of D-tryptophan degradation differed in several ways from that of L-tryptophan degradation. Each concentration of pyridoxal 5′-phosphate and tryptophanase was 1.2 mM and 0.92μM, and additionally reaction temperature and time was 55 °C and 2 h, respectively. All the other reaction conditions were the same as in the L-tryptophan degradation.\n(§2) The total volume of the reaction mixture was 2 mL per tube. The reaction was stopped by adding 2 mL of n-butanol, which was vigorously mixed and then immediately centrifuged at approximately 1,000 G for 10 min. After centrifugation, the reaction mixture was separated into two layers of butanol and aqueous solutions in which indole was equally distributed. The supernatant butanol layer was extracted to be mixed with an equal volume of Ehrlich reagent, then colored red at 60 °C for 30 min in Dry Thermo Unit. […] Tryptophanase activity was assayed in triplicate at the same substrate concentration and then averaged. Initial velocity was computed based on the averaged value.\n(§3) Initial velocities were defined by indole that formed within 1 minute after 1 mg of tryptophanase was added. Then the reciprocal of (initial velocity/[E] (enzyme concentration)) (ordinate) versus the reciprocal of substrate concentration (abscissa) was drawn for each concentration of L- or D-tryptophan. These double-reciprocal plots were drawn based on the least squares method to calculate kinetic parameters. Kcatwas determined from the reciprocal of the intercepts of these double-reciprocal plots, and the Michaelis constant Km from substrate concentration at 1/v = 0 in the absence of inhibitor. In noncompetitive inhibition, two inhibition constants of Ki (=[E][I]/[EI], E: enzyme; I: inhibitor; EI: enzyme-inhibitor complex) and Ki' (=[ES][I]/[ESI], ES: enzyme-substrate complex; ESI: enzyme-substrate-inhibitor complex) were determined from the slopes and from the intercepts, respectively. In the mixed type inhibition, Ki and Ki' were determined from x and y coordinates of the fixed point in the second quadrant."}, "tryptophanase [2]": {"molecular_target": "T1, tryptophanase", "assay": "L-tryptophan degradation by tryptophanase, kinetic and inhibition analysis (indole formation, Ehrlich reagent)", "assay_type": "biochemical, E. coli", "conditions": "for effect on L-tryptophan degradation: in the absence and presence of DAP; for Ki: read-out: Inhibition const. Ki", "method": "as §1, §2, §3"}, "[3]": {"conditions": "inhibitor of D-tryptophan degradation, 3.1 M DAP"}, "[4]": {"conditions": "inhibitor of L-tryptophan degradation, DAP 0 M"}, "[5]": {"conditions": "inhibitor of L-tryptophan degradation, DAP 0.6 M"}, "[6]": {"conditions": "inhibitor of L-tryptophan degradation, DAP 1.2 M"}, "[7]": {"conditions": "inhibitor of L-tryptophan degradation, DAP 1.9 M"}, "[8]": {"conditions": "substrate L-Trp, DAP 0 M (Table 2)"}, "[9]": {"conditions": "substrate L-Trp, DAP 0.6 M (Table 2)"}, "[10]": {"conditions": "substrate L-Trp, DAP 1.2 M (Table 2)"}}, "note": "Entries after “also recorded” stand apart in the source; their conditions may differ.", "data": [{"molecule": "N[C@H](Cc1c[nH]cn1)C(=O)O", "note": "[D-histidine]", "values": [{"measurement": "effect on D-tryptophan degradation", "setting": "tryptophanase [1]", "result": "inhibited"}, {"measurement": "Inhibition type", "setting": "tryptophanase [1]; [3]", "result": "competitively inhibited"}, {"measurement": "Ki", "setting": "tryptophanase [1]; [3]", "result": 400, "unit": "µM"}, {"measurement": "effect on L-tryptophan degradation", "setting": "tryptophanase [2]", "result": "no effect; also recorded: did not interact"}]}, {"molecule": "N[C@H](Cc1ccccc1)C(=O)O", "note": "[D-phenylalanine]", "values": [{"measurement": "effect on D-tryptophan degradation", "setting": "tryptophanase [1]", "result": "little"}, {"measurement": "effect on L-tryptophan degradation", "setting": "tryptophanase [2]", "result": "no effect"}]}, {"molecule": "N[C@H](Cc1c[nH]c2ccccc12)C(=O)O", "note": "[D-tryptophan]", "values": [{"measurement": "catalytic efficiency, percent of that for L-tryptophan", "setting": "tryptophanase [2]; in the presence of DAP, 37 °C, 30 min", "result": 0.3, "unit": "%"}, {"measurement": "Inhibition type", "setting": "tryptophanase [2]; [4]", "result": "competitive inhibitor"}, {"measurement": "Ki", "setting": "tryptophanase [2]; [4]", "result": 21000, "unit": "µM"}, {"measurement": "Inhibition type", "setting": "tryptophanase [2]; [5]", "result": "mixed"}, {"measurement": "Ki", "setting": "tryptophanase [2]; [5]", "result": 25000, "unit": "µM"}, {"measurement": "Inhibition type", "setting": "tryptophanase [2]; [6]", "result": "mixed"}, {"measurement": "Ki", "setting": "tryptophanase [2]; [6]", "result": 30000, "unit": "µM"}, {"measurement": "Inhibition type", "setting": "tryptophanase [2]; [7]", "result": "mixed"}, {"measurement": "Ki", "setting": "tryptophanase [2]; [7]", "result": 38000, "unit": "µM"}, {"measurement": "Inhibition type", "setting": "tryptophanase [2]; inhibitor of L-tryptophan degradation, DAP 3.1 M", "result": "noncompetitive inhibition type"}, {"measurement": "Ki/Ki'", "setting": "tryptophanase [2]; with increasing DAP concentrations (0 to 3.1 M), L-tryptophan degradation", "result": "0 to 1.0"}]}, {"molecule": "N[C@H](Cc1ccc(O)cc1)C(=O)O", "note": "[D-tyrosine]", "values": [{"measurement": "effect on D-tryptophan degradation", "setting": "tryptophanase [1]", "result": "no effect"}, {"measurement": "effect on L-tryptophan degradation", "setting": "tryptophanase [2]", "result": "no effect"}]}, {"molecule": "N.N.O=P(O)(O)O", "note": "[DAP, diammoniumhydrogen phosphate]", "values": [{"measurement": "Inhibition type", "setting": "tryptophanase [2]; DAP as inhibitor of L-tryptophan degradation", "result": "noncompetitive inhibitor"}]}, {"molecule": "N[C@@H](Cc1c[nH]c2ccccc12)C(=O)O", "note": "[L-tryptophan]", "values": [{"measurement": "reduced values of kcat compared to the values in the absence of DAP", "setting": "tryptophanase [2]; L-tryptophan degradation in the presence of DAP", "result": "18–45%"}]}, {"molecule": "O=C(O)C(=O)Cc1c[nH]c2ccccc12", "note": "[indole pyruvate]", "values": [{"measurement": "Ki, fold stronger than for pyruvate", "setting": "tryptophanase [2]; L-tryptophan degradation", "result": 15, "unit": "fold"}, {"measurement": "Inhibition type", "setting": "tryptophanase [2]; [8]", "result": "competitive"}, {"measurement": "Ki", "setting": "tryptophanase [2]; [8]", "result": 200, "unit": "µM"}, {"measurement": "Inhibition const. Ki'", "setting": "tryptophanase [2]; [9]", "result": 300, "unit": "µM"}, {"measurement": "Inhibition type", "setting": "tryptophanase [2]; [9]", "result": "mixed"}, {"measurement": "Ki", "setting": "tryptophanase [2]; [9]", "result": 200, "unit": "µM"}, {"measurement": "Inhibition const. Ki'", "setting": "tryptophanase [2]; [10]", "result": 200, "unit": "µM"}, {"measurement": "Inhibition type", "setting": "tryptophanase [2]; [10]", "result": "noncompetitive"}, {"measurement": "Ki", "setting": "tryptophanase [2]; [10]", "result": 200, "unit": "µM"}]}, {"molecule": "CC(=O)C(=O)O", "note": "[potassium pyruvate]", "values": [{"measurement": "Inhibition type", "setting": "tryptophanase [2]; [8]", "result": "competitively inhibited; also recorded: competitive"}, {"measurement": "Ki", "setting": "tryptophanase [2]; [8]", "result": 3000, "unit": "µM"}]}]}
